Earlier results as cited in PubChem BioAssay AID1259409 (Chemical Carcinogenesis Research Information System (CCRIS), 2018).

Tested on: rodent chemically induced tumor inhibition, incidence and multiplicity
Experiment: CCRIS tumor inhibitor studies
Description: The CCRIS database contains chemical records with carcinogenicity, mutagenicity, tumor promotion, and tumor inhibition test results. It was developed by the National Cancer Institute (NCI). Data are derived from studies cited in primary journals, current awareness tools, NCI reports, and other sources. Test results have been reviewed by experts in carcinogenesis and mutagenesis.
CCRIS provides historical information from the years 1985 - 2011. It is no longer updated.
This is an archive assay for CCRIS tumor inhibitor studies.

Structure (SMILES): Oc1ccccc1O
- tumour outcome (control, treated, inhibition, significance) (Carcinogen: 3,2'-DIMETHYL-4-AMINOBIPHENYL, 13394-86-0, Dose [Inhibitor]: 0, 0.8% IN BASAL DIET BEGINNING POST CARCINOGEN TREATMENT AND CONTINUING FOR 40 (STUDY DURATION: 60 WK), Route [Inhibitor]: ORAL, Species: RAT, Strain/Sex: F344/MALE, Target Tissue: Type of Lesion: SUBCUTIS: TUMOR, Dose [Carcinogen]: 50 MG/KG 1/2 WK FOR 20 WK TO RATS MAINTAINED ON ETHINYL ESTRADIOL CONTAINING DIET (0.75 PPM) FOR 1 WK CYCLED WITH ETHINY, Promoter: ETHINYL ESTRADIOL, 57-63-6): 1/10 (10%), 1/11 (9%), 10%, not significant
- tumour outcome (control, treated, inhibition, significance) (Carcinogen: 3,2'-DIMETHYL-4-AMINOBIPHENYL, 13394-86-0, Dose [Inhibitor]: 0, 0.8% IN BASAL DIET BEGINNING POST CARCINOGEN TREATMENT AND CONTINUING FOR 40 WK (STUDY DURATION: 60 WK), Route [Inhibitor]: ORAL, Species: RAT, Strain/Sex: F344/MALE, Target Tissue: Type of Lesion: LARGE INTESTINE: ADENOMA AND ADENOCARCINOMA, Dose [Carcinogen]: 50 MG/KG 1/2 WK FOR 20 WK TO RATS MAINTAINED ON ETHINYL ESTRADIOL CONTAINING DIET (0.75 PPM) FOR 1 WK CYCLED WITH ETHINY, Promoter: ETHINYL ESTRADIOL, 57-63-6): 3/10 (30%), 5/11 (45%), -50%, not significant
- tumour outcome (control, treated, inhibition, significance) (Carcinogen: 3,2'-DIMETHYL-4-AMINOBIPHENYL, 13394-86-0, Dose [Inhibitor]: 0, 0.8% IN BASAL DIET BEGINNING POST CARCINOGEN TREATMENT AND CONTINUING FOR 40 WK (STUDY DURATION: 60 WK), Route [Inhibitor]: ORAL, Species: RAT, Strain/Sex: F344/MALE, Target Tissue: Type of Lesion: PANCREAS: ACINAR CELL NODULE, Dose [Carcinogen]: 50 MG/KG 1/2 WK FOR 20 WK TO RATS MAINTAINED ON ETHINYL ESTRADIOL CONTAINING DIET (0.75 PPM) FOR 1 WK CYCLED WITH ETHINY, Promoter: ETHINYL ESTRADIOL, 57-63-6): 4/10 (40%), 4/11 (36%), 10%, not significant
- tumour outcome (control, treated, inhibition, significance) (Carcinogen: 3,2'-DIMETHYL-4-AMINOBIPHENYL, 13394-86-0, Dose [Inhibitor]: 0, 0.8% IN BASAL DIET BEGINNING POST CARCINOGEN TREATMENT AND CONTINUING FOR 40 WK (STUDY DURATION: 60 WK), Route [Inhibitor]: ORAL, Species: RAT, Strain/Sex: F344/MALE, Target Tissue: Type of Lesion: PREPUTIAL GLAND: ADENOMA AND CARCINOMA, Dose [Carcinogen]: 50 MG/KG 1/2 WK FOR 20 WK TO RATS MAINTAINED ON ETHINYL ESTRADIOL CONTAINING DIET (0.75 PPM) FOR 1 WK CYCLED WITH ETHINY, Promoter: ETHINYL ESTRADIOL, 57-63-6): 5/10 (50%), 4/11 (36%), 28%, not significant
- tumour outcome (control, treated, inhibition, significance) (Carcinogen: 3,2'-DIMETHYL-4-AMINOBIPHENYL, 13394-86-0, Dose [Inhibitor]: 0, 0.8% IN BASAL DIET BEGINNING POST CARCINOGEN TREATMENT AND CONTINUING FOR 40 WK (STUDY DURATION: 60 WK), Route [Inhibitor]: ORAL, Species: RAT, Strain/Sex: F344/MALE, Target Tissue: Type of Lesion: PROSTATE: CARCINOMA, Dose [Carcinogen]: 50 MG/KG 1/2 WK FOR 20 WK TO RATS MAINTAINED ON ETHINYL ESTRADIOL CONTAINING DIET (0.75 PPM) FOR 1 WK CYCLED WITH ETHINY, Promoter: ETHINYL ESTRADOL, 57-63-6): 5/10 (50%), 3/11 (27%), 46%, not significant
- tumour outcome (control, treated, inhibition, significance) (Carcinogen: 3,2'-DIMETHYL-4-AMINOBIPHENYL, 13394-86-0, Dose [Inhibitor]: 0, 0.8% IN BASAL DIET BEGINNING POST CARCINOGEN TREATMENT AND CONTINUING FOR 40 WK (STUDY DURATION: 60 WK), Route [Inhibitor]: ORAL, Species: RAT, Strain/Sex: F344/MALE, Target Tissue: Type of Lesion: SMALL INTESTINE: ADENOMA AND ADENOCARCINOMA, Dose [Carcinogen]: 50 MG/KG 1/2 WK FOR 20 WK TO RATS MAINTAINED ON ETHINYL ESTRADIOL CONTAINING DIET (0.75 PPM) FOR 1 WK CYCLED WITH ETHINY, Promoter: ETHINYL ESTRADIOL, 57-63-6): 2/10 (20%), 1/11 (9%), 55%, not significant
- tumour outcome (control, treated, inhibition, significance) (Carcinogen: 3,2-DIMETHYL-4-AMINOBIPHENYL, 13394-86-0, Dose [Inhibitor]: 0, 0.8% IN BASAL DIET BEGINNING POST CARCINOGEN TREATMENT AND CONTINUING FOR 40 WK (STUDY DURATION: 60 WK), Route [Inhibitor]: ORAL, Species: RAT, Strain/Sex: F344/MALE, Target Tissue: Type of Lesion: ZYMBAL GLAND: ADENOMA AND CARCINOMA, Dose [Carcinogen]: 50 MG/KG 1/2 WK FOR 20 WK TO RATS MAINTAINED ON ETHINYL ESTRADIOL CONTAINING DIET (0.75 PPM) FOR 1 WK CYCLED WITH ETHINY, Promoter: ETHINYL ESTRADIOL, 57-63-6): 2/10 (20%), 0/11 (0%), 100%, not significant
- tumour outcome (control, treated, inhibition, significance) (Carcinogen: 7,12-DIMETHYLBENZ[A]ANTHRACENE, 57-97-6, Dose [Inhibitor]: 0, 0.4% IN DIET FOR 35 WK BEGINNING POST CARCINOGEN DOSE (STUDY DURATION: 36 WK), Route [Inhibitor]: ORAL, Species: RAT, Strain/Sex: SPRAGUE-DAWLEY/FEMALE, Target Tissue: Type of Lesion: EAR DUCT: TUMOR, Dose [Carcinogen]: 50 MG/KG BW IN CORN OIL ONCE, Promoter: NONE USED): 5/15 (33%), 2/15 (13%), 61%, not significant
- tumour outcome (control, treated, inhibition, significance) (Carcinogen: 7,12-DIMETHYLBENZ[A]ANTHRACENE, 57-97-6, Dose [Inhibitor]: 0, 0.4% IN DIET FOR 35 WK BEGINNING POST CARCINOGEN DOSE (STUDY DURATION: 36 WK), Route [Inhibitor]: ORAL, Species: RAT, Strain/Sex: SPRAGUE-DAWLEY/FEMALE, Target Tissue: Type of Lesion: MAMMARY GLAND: ADENOCARCINOMA, Dose [Carcinogen]: 50 MG/KG BW IN CORN OIL ONCE, Promoter: NONE USED): 14/15 (93%), 15/15 (100%), -8%, not significant
- tumour outcome (control, treated, inhibition, significance) (Carcinogen: 7,12-DIMETHYLBENZ[A]ANTHRACENE, 57-97-6, Dose [Inhibitor]: 0, 0.4% IN DIET FOR 35 WK BEGINNING POST CARCINOGEN DOSE (STUDY DURATION: 36 WK), Route [Inhibitor]: ORAL, Species: RAT, Strain/Sex: SPRAGUE-DAWLEY/FEMALE, Target Tissue: Type of Lesion: MAMMARY GLAND: FIBROADENOMA, Dose [Carcinogen]: 50 MG/KG BW IN CORN OIL ONCE, Promoter: NONE USED): 3/15 (20%), 0/15 (0%), 100%, not significant
- tumour outcome (control, treated, inhibition, significance) (Carcinogen: 7,12-DIMETHYLBENZ[A]ANTHRACENE, 57-97-6, Dose [Inhibitor]: 0, 12 MG 2/WK FOR 30 WK APPLIED 20 MIN PRIOR TO EACH PROMOTER DOSE (STUDY DURATION: 32 WK), Route [Inhibitor]: DERMAL, Species: MOUSE, Strain/Sex: SENCAR/FEMALE, Target Tissue: Type of Lesion: SKIN: PAPILLOMA, Dose [Carcinogen]: 25 NMOL ONCE, Promoter: M-CHLOROPEROXYBENZOIC ACID, 937-14-4): 39%, 0%, 100%, not calculated
- tumour outcome (control, treated, inhibition, significance) (Carcinogen: BENZO[A]PYRENE, 50-32-8, Dose [Inhibitor]: 2 MG IN 0.1 ML ACETONE 3/WK ADMINISTERED SIMULTANEOUSLY WITH CARCINOGEN FOR DURATION OF STUDY (STUDY DURATION: 368 D), Route [Inhibitor]: DERMAL, Species: MOUSE, Strain/Sex: ICR/FEMALE, Target Tissue: Type of Lesion: SKIN: PAPILLOMA, Dose [Carcinogen]: 5 UG IN 0.1 ML ACETONE 3/WK FOR DURATION OF STUDY, Promoter: NONE USED): 14/50 (28%), 36/50 (72%), -157%, not calculated
- tumour outcome (control, treated, inhibition, significance) (Carcinogen: BENZO[A]PYRENE, 50-32-8, Dose [Inhibitor]: 2 MG IN 0.1 ML ACETONE 3/WK ADMINISTERED SIMULTANEOUSLY WITH CARCINOGEN FOR DURATION OF STUDY (STUDY DURATION: 368 D), Route [Inhibitor]: DERMAL, Species: MOUSE, Strain/Sex: ICR/FEMALE, Target Tissue: Type of Lesion: SKIN: SQUAMOUS CARCINOMA, Dose [Carcinogen]: 5 UG IN 0.1 ML ACETONE 3/WK FOR DURATION OF STUDY, Promoter: NONE USED): 10/50 (20%), 31/50 (62%), -210%, not calculated
- tumour outcome (control, treated, inhibition, significance) (Carcinogen: N-BIS(2-HYDROXYPROPYL)NITROSAMINE, 53609-64-6, Dose [Inhibitor]: 0, 0.8% IN DIET FOR 30 WK BEGINNING POST CARCINOGEN TREATMENT (STUDY DURATION: 32 WK), Route [Inhibitor]: ORAL, Species: RAT, Strain/Sex: F344/MALE, Target Tissue: Type of Lesion: BLADDER: ADENOMA, Dose [Carcinogen]: 0.1% IN DRINKING WATER FOR 2 WK, Promoter: NONE USED): 5%, 0%, 100%, not calculated
